For six cell lines, relative viability results are on record in the supplement of paper PMC10307832.

Holding throughout (experiment): relative viability (nuclei count vs DMSO), 5 days (fraction); higher = more cells survive
Compound in the test “Zosuquidar + Navitoclax”: O[C@@H](COc1cccc2ncccc12)CN1CCN([C@@H]2c3ccccc3[C@@H]3[C@H](c4ccccc42)C3(F)F)CC1 [Zosuquidar] + CC1(C)CCC(c2ccc(Cl)cc2)=C(CN2CCN(c3ccc(C(=O)NS(=O)(=O)c4ccc(N[C@H](CCN5CCOCC5)CSc5ccccc5)c(S(=O)(=O)C(F)(F)F)c4)cc3)CC2)C1 [Navitoclax] (partner 0.5 µM)
Summed up:
(§1)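 The day after seeding in 1536-well plates, lung cancer cell lines were treated by pin tool with a single drug, or with a fixed anchor-drug dose together with five library-drug doses (not always all listed) in √10 steps. After 5 days, a combined fix-and-stain solution (final 0.05% Triton X-100, 1% formaldehyde, 1 ug/ml Hoechst) was added. Nuclei counted on 4× images gave relative viability as treated counts over vehicle counts, reported as the median of duplicate plates.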

Compound in the test “Zosuquidar + Dasatinib”: O[C@@H](COc1cccc2ncccc12)CN1CCN([C@@H]2c3ccccc3[C@@H]3[C@H](c4ccccc42)C3(F)F)CC1 [Zosuquidar] + Cc1nc(Nc2ncc(C(=O)Nc3c(C)cccc3Cl)s2)cc(N2CCN(CCO)CC2)n1 [Dasatinib] (partner 0.075 µM)
Summed up: as §1

Compound in the test “Zosuquidar + Pemetrexed”: O[C@@H](COc1cccc2ncccc12)CN1CCN([C@@H]2c3ccccc3[C@@H]3[C@H](c4ccccc42)C3(F)F)CC1 [Zosuquidar] + Nc1nc2[nH]cc(CCc3ccc(C(=O)N[C@@H](CCC(=O)O)C(=O)O)cc3)c2c(=O)[nH]1 [Pemetrexed] (partner 0.2 µM)
An outline of the steps: as §1

Compound in the test “Zosuquidar + Foretinib”: O[C@@H](COc1cccc2ncccc12)CN1CCN([C@@H]2c3ccccc3[C@@H]3[C@H](c4ccccc42)C3(F)F)CC1 [Zosuquidar] + COc1cc2c(Oc3ccc(NC(=O)C4(C(=O)Nc5ccc(F)cc5)CC4)cc3F)ccnc2cc1OCCCN1CCOCC1 [Foretinib] (partner 0.25 µM)
Summed up: as §1

On to PC-3 [JPC-3], for which the relative viability amounted to 0.783 with Zosuquidar + Navitoclax (first compound 0.01 µM); 0.775 in the test with Zosuquidar + Navitoclax (first compound 0.03162 µM); 0.755 with Zosuquidar + Navitoclax (first compound 0.1 µM); 0.792 in the test with Zosuquidar + Navitoclax (first compound 0.3162 µM); 0.755 with Zosuquidar + Navitoclax (first compound 1 µM); 1 with Zosuquidar + Dasatinib (first compound 0.01 µM). For the same cell line, the relative viability with Zosuquidar + Dasatinib (first compound 0.03162 µM) amounted to 1.02; with Zosuquidar + Dasatinib (first compound 0.1 µM), 0.941; with Zosuquidar + Dasatinib (first compound 0.3162 µM), 0.927; with Zosuquidar + Dasatinib (first compound 1 µM), 0.964; with Zosuquidar + Pemetrexed (first compound 0.01 µM), 1.34; with Zosuquidar + Pemetrexed (first compound 0.03162 µM), 1.04. Further, the relative viability was 0.873 with Zosuquidar + Pemetrexed (first compound 0.1 µM); 1.1 in the test with Zosuquidar + Pemetrexed (first compound 0.3162 µM); 0.366 in the test with Zosuquidar + Pemetrexed (first compound 1 µM); 1.11 with Zosuquidar + Foretinib (first compound 0.01 µM); 1.02 with Zosuquidar + Foretinib (first compound 0.03162 µM); 0.984 with Zosuquidar + Foretinib (first compound 0.1 µM). The relative viability worked out at 1.09 with Zosuquidar + Foretinib (first compound 0.3162 µM) and 1.1 with Zosuquidar + Foretinib (first compound 1 µM).
On to PC-14, for which the relative viability was determined as 1.05 in the test with Zosuquidar + Navitoclax (first compound 0.01 µM); 0.988 in the test with Zosuquidar + Navitoclax (first compound 0.03162 µM); 0.983 with Zosuquidar + Navitoclax (first compound 0.1 µM); 0.934 with Zosuquidar + Navitoclax (first compound 0.3162 µM); 0.959 in the test with Zosuquidar + Navitoclax (first compound 1 µM); 0.271 with Zosuquidar + Dasatinib (first compound 0.01 µM). Moreover, the relative viability in the test with Zosuquidar + Dasatinib (first compound 0.03162 µM) stood at 0.223; in the test with Zosuquidar + Dasatinib (first compound 0.1 µM) it was 0.341; with Zosuquidar + Dasatinib (first compound 0.3162 µM) it was 0.303; with Zosuquidar + Dasatinib (first compound 1 µM), 0.284; with Zosuquidar + Pemetrexed (first compound 0.01 µM) it was 0.119; with Zosuquidar + Pemetrexed (first compound 0.03162 µM), 0.147. The relative viability with Zosuquidar + Pemetrexed (first compound 0.1 µM) is 0.134; with Zosuquidar + Pemetrexed (first compound 0.3162 µM), 0.128; with Zosuquidar + Pemetrexed (first compound 1 µM), 0.142; in the test with Zosuquidar + Foretinib (first compound 0.01 µM) it was 0.99; in the test with Zosuquidar + Foretinib (first compound 0.03162 µM) it was 0.983; in the test with Zosuquidar + Foretinib (first compound 0.1 µM), 0.952. Moreover, the relative viability with Zosuquidar + Foretinib (first compound 0.3162 µM) is 0.997; with Zosuquidar + Foretinib (first compound 1 µM) it was 0.952.
As for RERF-LC-KJ, the relative viability is 0.99 with Zosuquidar + Navitoclax (first compound 0.01 µM); 0.853 with Zosuquidar + Navitoclax (first compound 0.03162 µM); 0.947 with Zosuquidar + Navitoclax (first compound 0.1 µM); 1.11 with Zosuquidar + Navitoclax (first compound 0.3162 µM); 0.844 with Zosuquidar + Navitoclax (first compound 1 µM); 0.729 in the test with Zosuquidar + Dasatinib (first compound 0.01 µM). Further, the relative viability was found to be 0.859 with Zosuquidar + Dasatinib (first compound 0.03162 µM); 0.896 in the test with Zosuquidar + Dasatinib (first compound 0.1 µM); 0.74 with Zosuquidar + Dasatinib (first compound 0.3162 µM); 0.782 with Zosuquidar + Dasatinib (first compound 1 µM); 0.456 with Zosuquidar + Pemetrexed (first compound 0.01 µM); 0.459 in the test with Zosuquidar + Pemetrexed (first compound 0.03162 µM). Moreover, the relative viability with Zosuquidar + Pemetrexed (first compound 0.1 µM) stood at 0.478; with Zosuquidar + Pemetrexed (first compound 0.3162 µM) it was 0.518; in the test with Zosuquidar + Pemetrexed (first compound 1 µM) it was 0.467; with Zosuquidar + Foretinib (first compound 0.01 µM), 0.895; with Zosuquidar + Foretinib (first compound 0.03162 µM), 0.926; with Zosuquidar + Foretinib (first compound 0.1 µM) it was 0.861. For the same cell line, the relative viability with Zosuquidar + Foretinib (first compound 0.3162 µM) was found to be 0.923; in the test with Zosuquidar + Foretinib (first compound 1 µM) it was 0.844.
On to SK-LU-1, for which the relative viability with Zosuquidar + Navitoclax (first compound 0.01 µM) stood at 0.82; with Zosuquidar + Navitoclax (first compound 0.03162 µM), 0.789; in the test with Zosuquidar + Navitoclax (first compound 0.1 µM) it was 1.44; in the test with Zosuquidar + Navitoclax (first compound 0.3162 µM), 0.974; in the test with Zosuquidar + Navitoclax (first compound 1 µM), 0.586; with Zosuquidar + Dasatinib (first compound 0.01 µM) it was 0.191. Also, the relative viability with Zosuquidar + Dasatinib (first compound 0.03162 µM) came out at 0.145; with Zosuquidar + Dasatinib (first compound 0.1 µM) it was 0.194; with Zosuquidar + Dasatinib (first compound 0.3162 µM), 0.211; in the test with Zosuquidar + Dasatinib (first compound 1 µM) it was 0.189; in the test with Zosuquidar + Pemetrexed (first compound 0.01 µM), 0.975; in the test with Zosuquidar + Pemetrexed (first compound 0.03162 µM), 0.795. The relative viability turned out to be 1.06 with Zosuquidar + Pemetrexed (first compound 0.1 µM); 1.03 with Zosuquidar + Pemetrexed (first compound 0.3162 µM); 0.962 in the test with Zosuquidar + Pemetrexed (first compound 1 µM); 0.799 in the test with Zosuquidar + Foretinib (first compound 0.01 µM); 0.871 in the test with Zosuquidar + Foretinib (first compound 0.03162 µM); 0.937 with Zosuquidar + Foretinib (first compound 0.1 µM). Besides, the relative viability with Zosuquidar + Foretinib (first compound 0.3162 µM) was 0.961; with Zosuquidar + Foretinib (first compound 1 µM), 0.77.
Turning to SK-MES-1, the relative viability with Zosuquidar + Navitoclax (first compound 0.01 µM) was 1.19; with Zosuquidar + Navitoclax (first compound 0.03162 µM) it was 1.18; in the test with Zosuquidar + Navitoclax (first compound 0.1 µM) it was 1.09; with Zosuquidar + Navitoclax (first compound 0.3162 µM), 1.25; with Zosuquidar + Navitoclax (first compound 1 µM) it was 1.25; with Zosuquidar + Dasatinib (first compound 0.01 µM), 0.361. The relative viability with Zosuquidar + Dasatinib (first compound 0.03162 µM) was 0.339; with Zosuquidar + Dasatinib (first compound 0.1 µM) it was 0.343; in the test with Zosuquidar + Dasatinib (first compound 0.3162 µM) it was 0.365; with Zosuquidar + Dasatinib (first compound 1 µM), 0.361; with Zosuquidar + Pemetrexed (first compound 0.01 µM), 0.957; in the test with Zosuquidar + Pemetrexed (first compound 0.03162 µM) it was 0.952. Also, the relative viability with Zosuquidar + Pemetrexed (first compound 0.1 µM) came out at 0.85; in the test with Zosuquidar + Pemetrexed (first compound 0.3162 µM), 1.07; in the test with Zosuquidar + Pemetrexed (first compound 1 µM), 1.04; with Zosuquidar + Foretinib (first compound 0.01 µM), 0.891; with Zosuquidar + Foretinib (first compound 0.03162 µM) it was 0.872; in the test with Zosuquidar + Foretinib (first compound 0.1 µM) it was 0.879. The relative viability was found to be 1.05 with Zosuquidar + Foretinib (first compound 0.3162 µM) and 0.94 in the test with Zosuquidar + Foretinib (first compound 1 µM).
Turning to SW 1573, the relative viability with Zosuquidar + Navitoclax (first compound 0.01 µM) was 0.974; with Zosuquidar + Navitoclax (first compound 0.03162 µM) it was 0.896; in the test with Zosuquidar + Navitoclax (first compound 0.1 µM) it was 1.07; in the test with Zosuquidar + Navitoclax (first compound 0.3162 µM) it was 1.05; with Zosuquidar + Navitoclax (first compound 1 µM), 1.02; with Zosuquidar + Dasatinib (first compound 0.01 µM), 0.603. Further, the relative viability came out at 0.437 in the test with Zosuquidar + Dasatinib (first compound 0.03162 µM); 0.667 with Zosuquidar + Dasatinib (first compound 0.1 µM); 0.456 in the test with Zosuquidar + Dasatinib (first compound 0.3162 µM); 0.595 in the test with Zosuquidar + Dasatinib (first compound 1 µM); 0.781 with Zosuquidar + Pemetrexed (first compound 0.01 µM); 0.751 with Zosuquidar + Pemetrexed (first compound 0.03162 µM). Further, the relative viability in the test with Zosuquidar + Pemetrexed (first compound 0.1 µM) was 0.952; with Zosuquidar + Pemetrexed (first compound 0.3162 µM) it was 0.941; with Zosuquidar + Pemetrexed (first compound 1 µM), 0.786; with Zosuquidar + Foretinib (first compound 0.01 µM), 0.976; with Zosuquidar + Foretinib (first compound 0.03162 µM) it was 0.888; with Zosuquidar + Foretinib (first compound 0.1 µM), 1.07. The relative viability worked out at 1.05 in the test with Zosuquidar + Foretinib (first compound 0.3162 µM) and 0.879 in the test with Zosuquidar + Foretinib (first compound 1 µM).
